According to US20230104283A1, “JNK INHIBITOR, AND PHARMACEUTICAL COMPOSITION AND USE THEREOF” (WUHAN LL SCIENCE AND TECHNOLOGY DEVELOPMENT CO. , LTD, priority 2019, published 2023):

What was measured:
[1] = molecular target: T1, JNK1 kinase (Homo sapiens, UniProt P45983); assay: JNK1 activity screening (time-resolved fluorometric HTRF kinase assay); format: biochemical; details: enzymatic assay, activity level
T1 construct: purchased Carna Biosciences 04-163
Procedure: JNK1 activity screening. JNK1 activity was detected using a 96-well (Cisbio, 66PL96025) time-resolved fluorometric assay. The JNK1 assay was conducted in the following assay buffer: 10 mM MgCl2 (Sigma, M1028), 1 mM MnCl2 (Sigma, M1787), 1 mM DTT (Sigma, D0632) and 1× Enzymatic buffer/kinase (Cisbio, 62EZBFDC). By using the assay buffer, 3 μL of 0.1 ng/μL JNK1 kinase (Carna Biosciences, 04-163) was added to a 96-well microplate, and then 4 μL of a compound diluted appropriately (with a DMSO content of 2.5%) was added. The resulting mixture was incubated at room temperature for 0.5 h. To start the reaction, the assay buffer was used to mix 0.003 μM ATP (Aladdin, A7699) and 30 μM substrate ATF2-GST fusion (Cisbio, 64CUS000AFPEB), and 3 μL of the mixed solution was added to the microplate. The resulting mixture was incubated at room temperature for 2.5 h. HTRF detection buffer ([…], 62SDBRDD) was used then to prepare a mixture of 5 μg/mL MAb Anti GST-XL665 (Cisbio, 61GSTXLA) and 0.045 μg/mL PAb Anti-phospho ATF2-K (Cisbio, 61P12KAZ), and 10 μL of the mixture was added to the plate to terminate the reaction. After incubation for about 12 h, the plate was read on a Perkin-Elmer Envision reader.

[2] = tested on: RAW264.7 phosphorylated c-Jun (Ser63); assay: RAW264.7 phosphorylated c-Jun whole cell assay; format: cell-based; details: Mus musculus; cytological assay, activity level; lipopolysaccharide-activated RAW264.7 cells, phospho-c-Jun (Ser63) ELISA
Procedure: RAW264.7 (ATCC TIB-71) cells were purchased from BeNa Culture Collection and maintained in a high-glucose DMEM medium (Gibco) containing 10% fetal bovine serum (Gibco) and 1% penicillin-streptomycin (Gibco). All cells were cultured at 37° C. in 95% air and 5% CO2. All cells were seeded into 120 μL of cell culture medium in a 96-well plate at a density of 2×10^5 cells per well. The stock solution of compound (15 mM) was serially diluted in DMSO (Sigma) and further diluted in growth medium, and it was then added at 15 μL per well as a 10× concentrated solution, well mixed with the cells and incubated with the cells for 30 min. Concentration of the compound vehicle (DMSO) in each well was 0.2%. After incubation for 30 min, the cells were activated with […] lipopolysaccharide (Sigma). Lipopolysaccharide was added to the growth medium as a 10× concentrated solution at 15 μL per well. The cell plate was incubated for 1 h, and then all the medium was removed. The level of C-Jun protein with phosphorylation of serine at site 63 was measured using the whole cell lysate kit-phosphorylated C-Jun assay (PathScan® Phospho-c-Jun (Ser63) Sandwich ELISA Kit) (CST, 7145C) according to the manufacturer's instructions.

T1 sequence (P45983 whole entry): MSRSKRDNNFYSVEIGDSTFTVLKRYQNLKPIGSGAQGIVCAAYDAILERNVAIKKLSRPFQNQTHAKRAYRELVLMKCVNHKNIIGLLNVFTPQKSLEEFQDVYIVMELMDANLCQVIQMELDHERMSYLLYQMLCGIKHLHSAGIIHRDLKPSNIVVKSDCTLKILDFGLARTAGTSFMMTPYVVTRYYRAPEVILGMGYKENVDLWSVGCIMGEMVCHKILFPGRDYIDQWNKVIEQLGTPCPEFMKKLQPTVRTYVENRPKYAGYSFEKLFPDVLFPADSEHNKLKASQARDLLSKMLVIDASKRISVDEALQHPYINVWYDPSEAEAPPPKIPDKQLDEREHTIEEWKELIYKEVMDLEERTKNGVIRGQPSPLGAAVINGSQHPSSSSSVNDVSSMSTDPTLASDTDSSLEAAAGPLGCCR

| SMILES | IC50 [1] | IC50 [2] |
| --- | --- | --- |
| C[C@@H]1CC[C@@H](Nc2nc(NC3CC4(COC4)C3)ncc2C(N)=O)C[C@H]1O [Compound T015, 2-((2-oxaspiro[3.3]heptan-6-yl)amino)-4-(((1R,3R,4R)-3-hydroxy-4-methylcyclohexyl)amino)pyrimidine-5-carboxamide] | < 100 nM | 500 to 1000 nM |
| CC(C)(C)Nc1ncc(C(N)=O)c(NC2CCC(=O)NC2)n1 (stereo not shown) [Compound T016, 2-(tert-butylamino)-4-((6-oxopiperidin-3-yl)amino)pyrimidine-5-carboxamide] | < 100 nM | 500 to 1000 nM |
| CC(C)(C)Nc1ncc(C(N)=O)c(NC2CCC(=O)N(CCO)C2)n1 (stereo not drawn) [Compound T017, 2-(tert-butylamino)-4-((l-(2-hydroxyethyl)-6-oxopiperidin-3-yl)amino)pyrimidine-5-carboxamide] | < 100 nM | 500 to 1000 nM |
| CC(C)(C)Nc1ncc(C(N)=O)c(N2CCCC(CO)C2)n1 (stereo not shown) [Compound T018, 2-(tert-butylamino)-4-(3-(hydroxymethyl)piperidin-1-yl)pyrimidine-5-carboxamide] | 100 to 500 nM | 500 to 1000 nM |
| CC(C)(C)Nc1ncc(C(N)=O)c(N2CC(C(C)(C)O)C2)n1 [Compound T020, 2-(tert-butylamino)-4-(3-(2-hydroxypropan-2-yl)azetidin-1-yl) pyrimidine-5-carboxamide] | 100 to 500 nM | 500 to 1000 nM |
| CC(C)(C)Nc1ncc(C(N)=O)c(NC2CCCN(C(N)=O)C2)n1 (stereo not shown) [Compound T021, 2-(tert-butylamino)-4-((1-carbamoylpiperidin-3-yl)amino) pyrimidine-5-carboxamide] | 100 to 500 nM | > 1000 nM |
| C[C@@H]1CC[C@@H](Nc2nc(N3CCOCC3)ncc2C(N)=O)C[C@H]1O [Compound T022, 4-(((1R,3R,4R)-3-hydroxy-4-methylcyclohexyl)amino)-2-morpholinopyrimidine-5-carboxamide] | 500 to 1000 nM | > 1000 nM |
| C[C@@H]1CC[C@@H](Nc2nc(N3CCNC(=O)C3)ncc2C(N)=O)C[C@H]1O [Compound T023, 4-(((1R,3R,4R)-3-hydroxy-4-methylcyclohexyl)amino)-2-(3-oxopiperazin-1-yl)pyrimidine-5-carboxamide] | 500 to 1000 nM | > 1000 nM |
| CC(C)(C)Nc1ncc(C(N)=O)c(NC2CCCNC2)n1 (stereo not shown) [Compound T025, 2-(tert-butylamino)-4-(piperidin-3-ylamino)pyrimidine-5-carboxamide] | < 100 nM | > 1000 nM |

Other lines, results leading:

| IC50 [1] | IC50 [2] | SMILES |
| --- | --- | --- |
| 500 to 1000 nM | > 1000 nM | C[C@@H]1CC[C@@H](Nc2nc(NC(C)(C)C)ncc2Cl)C[C@H]1O [Compound T013, (1R,2R,5R)-5-((2-(tert-butylamino)-5-chloropyrimidin-4-yl)amino)-2-methylcyclohexan-1-ol] |
| > 1000 nM | > 1000 nM | Cc1cnc(NC(C)(C)C)nc1N[C@@H]1CC[C@@H](C)[C@H](O)C1 [Compound T014, (1R,2R,5R)-5-((2-(tert-butylamino)-5-methylpyrimidin-4-yl)amino)-2-methylcyclohex-1-ol] |
| 100 to 500 nM | 500 to 1000 nM | CC(C)(C)Nc1ncc(C(N)=O)c(N2CCC(CO)C2)n1 (stereo not shown) [Compound T019, 2-(tert-butylamino)-4-(3-(hydroxymethyl)pyrrolidin-1-yl)pyrimidine-5-carboxamide] |
| < 100 nM | 100 to 500 nM | CCNC(=O)N1CCC(Nc2ncc(C(N)=O)c(N[C@@H]3CC[C@@H](C)[C@H](O)C3)n2)CC1 [Compound T024, 2-((l-(ethylcarbamoyl)piperidin-4-yl)amino)-4-(((1R,3R,4R)-3-hydroxy-4-methylcyclohexyl)amino)pyrimidine-5-carboxamide] |
| < 100 nM | 100 to 500 nM | CC(C)(C)Nc1ncc(C(N)=O)c(Nc2cccc(CO)c2)n1 [Compound T026, 2-(tert-butylamino)-4-((3-(hydroxymethyl)phenyl)amino)pyrimidine-5-carboxamide] |
